{"source": "patent US20050182039A1", "about": "“Use of Loteprednol etabonate for the treatment of dry eye” (Bausch & Lomb Incorporated, priority 2004, published 2005)", "system": "patients with KCS with inflammation", "assay": "four-week topical use of a Loteprednol etabonate ophthalmic formulation in patients with KCS with inflammation", "assay_type": "in vivo, human", "text": "U.S. Patent Application. Publication No. 20030008853 discloses 22,29-epoxy-3,4,6,7,29-pentahydroxy-,(3α,4β,5α,6α,7-β,14β,22S)-stigmastan-15-one as useful for treating dry eye disorders and other disorders requiring the wetting of the eye. This publication further notes that corticosteroids, such as prednisolone, dexamethasone, fluoromethalone, hydrocortisone, loteprednol, triamcinolone, etc., cannot be used for prolonged therapy in dry eye patients without causing side effects. This publication further notes that steroid-related complications including increased intraocular pressure and cataract formation have been observed in dry eye patients treated with corticosteroids after several months of therapy."}
{"smiles": "CCOC(=O)O[C@]1(C(=O)OCCl)CC[C@H]2[C@@H]3CCC4=CC(=O)C=C[C@]4(C)[C@H]3[C@@H](O)C[C@@]21C", "note": "[Loteprednol etabonate, (11β,17α),-17-[(Ethoxycarbonyl)oxy]-11-hydroxy-3-oxoandrosta-1,4-diene-17-carboxylic acid chloromethyl ester]", "values": [{"measurement": "treatment effect in subsets of patients with a moderate to severe inflammatory component (more severe KCS)", "setting": "patient subsets with moderate to severe inflammatory component", "value": "differential treatment effect, which was in some cases significant"}, {"measurement": "efficacy in the management of patients with KCS with inflammation", "setting": "used for four weeks", "value": "efficacious"}, {"measurement": "tolerability in the management of patients with KCS with inflammation", "setting": "used for four weeks", "value": "well tolerated"}]}
